Reference: patent publication US5912331A, “Process for the preparation of 9-deoxo-9(Z)-hydroxyiminoerythromycin A” (Merck & Co., Inc., priority 1991, dated 1999)
Values after ≈ are worked out from the molar mass of the structure shown. Read-outs that look alike come from different tables or passages of the source.

Assays:
[1] = system: Enterococcus faecalis MB 5407; test: MIC, liquid turbidimetric microtiter method in brain heart infusion broth; assay type: cell-based; settings: MB5407
Excerpt: (§1) The antibacterial activity of 9-deoxo-9(Z)-hydroxyiminoerythromycin A (II) against a panel of aerobic Gram positive and negative bacteria is shown in the following Table. The assay employs a liquid turbidimetric microtiter method for determination of the minimum inhibitory concentration (MIC) in brain heart infusion broth. […] The MIC is generally not an absolute value but rather a concentration range that falls within a two-fold dilution limit. Generally twelve two-fold dilutions of the test compound are employed with the initial concentration set at 128 mcg/ml.

[2] = system: Enterococcus faecium MB 5416; test: as above; assay type: cell-based; settings: MB5416
Excerpt: as §1

[3] = system: Klebsiella pneumoniae MB4005; test: as above; assay type: cell-based
Excerpt: as §1

[4] = system: Staphylococcus aureus MB 2865; test: as above; assay type: cell-based; settings: MB2865
Excerpt: as §1

[5] = system: Staphylococcus epidermidis MB 5414; test: as above; assay type: cell-based; settings: MB5414
Excerpt: as §1

[6] = system: Staphylococcus haemolyticus MB 5412; test: as above; assay type: cell-based; settings: MB5412
Excerpt: as §1

[7] = system: Steptococcus pneumoniae CL 2883; test: as above; assay type: cell-based
Excerpt: as §1

[8] = system: Streptococcus agalactiae CL 1343; test: as above; assay type: cell-based; settings: CL1343
Excerpt: as §1

[9] = system: Streptococcus pyogenes MB 2874; test: as above; assay type: cell-based; settings: MB2874
Excerpt: as §1

[10] = system: Streptococcus pyogenes MB 5406; test: as above; assay type: cell-based; settings: MB5406
Excerpt: as §1

[11] = system: Streptococcus viridans CL 2943; test: as above; assay type: cell-based; settings: CL2943
Excerpt: as §1

[12] = system: Yersinia enterocoltica CL 1598; test: as above; assay type: cell-based; settings: CL1598
Excerpt: as §1

Escherichia coli MB 2884 = test: as above; assay type: cell-based; settings: MB2884
Excerpt: (§2) The assay employs a liquid turbidimetric microtiter method for determination of the minimum inhibitory concentration (MIC) in brain heart infusion broth. […] The MIC is generally not an absolute value but rather a concentration range that falls within a two-fold dilution limit.

Escherichia coli MB 4926 = test: as above; assay type: cell-based; settings: MB4926
Excerpt: as §2

[13] = system: Pseudomonas stutzeri MB 1231; test: as above; assay type: cell-based; settings: Stutzerimonas stutzeri, MB1231
Excerpt: as §2

[14] = system: panel of aerobic Gram positive and negative bacteria; test: antibacterial activity in vitro against a panel of bacteria; assay type: cell-based
Excerpt: as §1

[15] = isomer conversion under the MIC assay conditions; assay type: physicochemical
Excerpt: as §1

[16] = system: Gram-positive microorganisms, e.g. Staphylococcus aureaus and Streptococcus pyogenes, and certain Gram-negative microorganisms; test: in vivo antibacterial activity, infected mice treated orally or subcutaneously
Excerpt: Extrapolation of such in vivo tests to support for human utility for macrolide compounds is likewise taught in U.S. Pat. No. 4,518,590, cited above.

[17] = Enterococcus faecalis MB 5407, brain heart infusion broth, read-out: MIC
[18] = Enterococcus faecium MB 5416, brain heart infusion broth, read-out: MIC
[19] = Klebsiella pneumoniae MB4005, brain heart infusion broth, read-out: MIC
[20] = Staphylococcus aureus MB 2865, brain heart infusion broth, read-out: MIC
[21] = Staphylococcus epidermidis MB 5414, brain heart infusion broth, read-out: MIC
[22] = Staphylococcus haemolyticus MB 5412, brain heart infusion broth, read-out: MIC
[23] = Steptococcus pneumoniae CL 2883, brain heart infusion broth, read-out: MIC
[24] = Streptococcus agalactiae CL 1343, brain heart infusion broth, read-out: MIC
[25] = Streptococcus pyogenes MB 2874, brain heart infusion broth, read-out: MIC
[26] = Streptococcus pyogenes MB 5406, brain heart infusion broth, read-out: MIC
[27] = Streptococcus viridans CL 2943, brain heart infusion broth, read-out: MIC
[28] = Yersinia enterocoltica CL 1598, brain heart infusion broth, read-out: MIC

CC[C@H]1OC(=O)[C@H](C)[C@@H](O[C@H]2C[C@@](C)(OC)[C@@H](O)[C@H](C)O2)[C@H](C)[C@@H](O[C@@H]2O[C@H](C)C[C@H](N(C)C)[C@H]2O)[C@](C)(O)C[C@@H](C)C(=O)[C@H](C)[C@@H](O)[C@]1(C)O [(I), Erythromycin A]
MIC ([1]; Enterococcus faecalis): 1 µg/mL (≈ 1.36 µM) | MIC ([2]; Enterococcus faecium): 0.12 µg/mL (≈ 0.164 µM) | MIC ([3]; Klebsiella pneumoniae, MB4005): 32 µg/mL (≈ 43.6 µM) | MIC ([4]; Staphylococcus aureus): 0.25 µg/mL (≈ 0.341 µM) | MIC ([5]; Staphylococcus epidermidis): 0.12 µg/mL (≈ 0.164 µM) | MIC ([6]; Staphylococcus haemolyticus): 0.12 µg/mL (≈ 0.164 µM) | MIC [7]: ≤ 0.06 µg/mL | MIC ([8]; Streptococcus agalactiae): ≤ 0.06 µg/mL | MIC ([9]; Streptococcus pyogenes): ≤ 0.06 µg/mL | MIC ([10]; Streptococcus pyogenes): 16 µg/mL (≈ 21.8 µM) | MIC ([11]; Streptococcus viridans): ≤ 0.06 µg/mL | MIC ([12]; Yersinia): 32 µg/mL (≈ 43.6 µM) | MIC (Escherichia coli MB 2884): 16 µg/mL (≈ 21.8 µM) | MIC (Escherichia coli MB 4926): 0.25 µg/mL (≈ 0.341 µM) | MIC [13]: ≤ 0.06 µg/mL

CC[C@H]1OC(=O)[C@H](C)[C@@H](O[C@H]2C[C@@](C)(OC)[C@@H](O)[C@H](C)O2)[C@H](C)[C@@H](O[C@@H]2O[C@H](C)C[C@H](N(C)C)[C@H]2O)[C@](C)(O)C[C@@H](C)/C(=N/O)[C@H](C)[C@@H](O)[C@]1(C)O [(II), 9-Deoxo-9(Z)-hydroxyiminoerythromycin A]
MIC [1, 17]: 2 µg/mL (≈ 2.67 µM) | MIC [2, 18]: 0.25 µg/mL (≈ 0.334 µM) | MIC [3, 19]: 32 µg/mL (≈ 42.7 µM) | MIC [4, 20]: 0.25 µg/mL (≈ 0.334 µM) | MIC [5, 21]: 0.12 µg/mL (≈ 0.16 µM) | MIC [6, 22]: 0.12 µg/mL (≈ 0.16 µM) | MIC [7, 23]: ≤ 0.06 µg/mL | MIC [8, 24]: ≤ 0.06 µg/mL | MIC [9, 25]: ≤ 0.06 µg/mL | MIC [10, 26]: 32 µg/mL (≈ 42.7 µM) | MIC [11, 27]: ≤ 0.06 µg/mL | MIC [12, 28]: 32 µg/mL (≈ 42.7 µM) | MIC (Escherichia coli MB 2884): 16 µg/mL (≈ 21.4 µM) | MIC (Escherichia coli MB 4926): 0.5 µg/mL (≈ 0.668 µM) | MIC [13]: ≤ 0.06 µg/mL | activity in vitro (in words) ([14]; MIC panel, compared with (III) and erythromycin A (I)): comparable with the activities of the known compounds 9-deoxo-9(E)-hydroxyiminoerythromycin A (III) and erythromycin A (I) | in vitro activity against Gram-positive and certain Gram-negative microorganisms ([14]; e.g. Staphylococcus aureas, Streptococcus pyogenes, certain Gram-negative cocci): exhibits in vitro activity against a variety of Gram-positive microorganisms, e.g. Staphylococcus aureas and Streptococcus pyogenes, and against certain Gram-negative microorganisms | conversion of (Z)isomer to (E)isomer [15]: An undetermined fraction of the (Z)isomer is converting | in vivo activity compared with in vitro activity ([16]; as regards susceptible organisms): more limited than its in vitro activity | in vivo activity ([16]; oral and parenteral routes): active in vivo versus a variety of Gram-positive microorganisms, e.g. Staphylococcus aureaus and Streptococcus pyogenes, and also certain Gram-negative microorganisms

CC[C@H]1OC(=O)[C@H](C)[C@@H](O[C@H]2C[C@@](C)(OC)[C@@H](O)[C@H](C)O2)[C@H](C)[C@@H](O[C@@H]2O[C@H](C)C[C@H](N(C)C)[C@H]2O)[C@](C)(O)C[C@@H](C)/C(=N\O)[C@H](C)[C@@H](O)[C@]1(C)O [(III), 9-Deoxo-9(E)-hydroxyiminoerythromycin A]
MIC [1, 17]: 0.5 µg/mL (≈ 0.668 µM) | MIC [2, 18]: 0.12 µg/mL (≈ 0.16 µM) | MIC [3, 19]: 32 µg/mL (≈ 42.7 µM) | MIC [4, 20]: 0.25 µg/mL (≈ 0.334 µM) | MIC [5, 21]: 0.12 µg/mL (≈ 0.16 µM) | MIC [6, 22]: 0.12 µg/mL (≈ 0.16 µM) | MIC [7, 23]: 0.12 µg/mL (≈ 0.16 µM) | MIC [8, 24]: ≤ 0.06 µg/mL | MIC [9, 25]: ≤ 0.06 µg/mL | MIC [10, 26]: 16 µg/mL (≈ 21.4 µM) | MIC [11, 27]: ≤ 0.06 µg/mL | MIC [12, 28]: 16 µg/mL (≈ 21.4 µM) | MIC (Escherichia coli MB 2884): 32 µg/mL (≈ 42.7 µM) | MIC (Escherichia coli MB 4926): 0.25 µg/mL (≈ 0.334 µM) | MIC [13]: 1 µg/mL (≈ 1.34 µM)
